Test results from US8802597B2, “Herbicidal pyrimidines” (E I du Pont de Nemours and Company, priority 2003, dated 2014).

What was measured:
[1] = tested on: Italian ryegrass (Lolium multiflorum); assay: Test C postemergence; assay type: in vivo; conditions: for Ryegrass, Italian plant response rating: scale 0 to 100 (0 no effect, 100 complete control)
Outline: (§1)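 Pre: seeds planted, sprayed same day. Post: 1- to 4-leaf plants (2–18 cm). Formulation: non-phytotoxic solvent + surfactant. Greenhouse 12–14 d; visual % control vs untreated, 0–100.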

[2] = tested on: blackgrass (Alopecurus myosuroides); assay: Test C postemergence; assay type: in vivo
Outline: as §1

[3] = tested on: canarygrass (Phalaris minor); assay: Test C postemergence; assay type: in vivo
Outline: as §1

[4] = tested on: downy brome (Bromus tectorum); assay: Test C postemergence; assay type: in vivo
Outline: as §1

[5] = tested on: green foxtail (Setaria viridis); assay: Test C postemergence; assay type: in vivo; conditions: for Foxtail, Green plant response rating: scale 0 to 100 (0 no effect, 100 complete control)
Outline: as §1

[6] = tested on: wheat (Triticum aestivum); assay: Test C postemergence; assay type: in vivo; conditions: for Wheat plant response rating: scale 0 to 100 (0 no effect, 100 complete control)
Outline: as §1

wild oat (Avena fatua) = assay: Test C postemergence; assay type: in vivo; conditions: for Oat, Wild plant response rating: scale 0 to 100 (0 no effect, 100 complete control)
Outline: as §1

[7] = tested on: windgrass (Apera spica-venti); assay: Test C postemergence; assay type: in vivo; conditions: for Windgrass plant response rating: scale 0 to 100 (0 no effect, 100 complete control)
Outline: as §1

[8] = tested on: winter barley (Hordeum vulgare); assay: Test C postemergence; assay type: in vivo
Outline: as §1

[9] = tested on: barnyardgrass (Echinochloa crus-galli); assay: Test C flooded paddy test; assay type: in vivo; conditions: Flood
Procedure: (§2) At the same time, plants selected from these crop and weed species and also winter barley (Hordeum vulgare), blackgrass (Alopecurus myosuroides), canarygrass (Phalaris minor), chickweed (Stellaria media), downy brome (Bromus tectorum), green foxtail (Setaria viridis), Italian ryegrass (Lolium multiflorum), wheat (Triticum aestivum), wild oat (Avena fatua) and windgrass (Apera spica-venti) were treated with postemergence applications of some of the test chemicals formulated in the same manner. Plants ranged in height from 2 to 18 cm (1- to 4-leaf stage) for postemergence treatments. Plant species in the flooded paddy test consisted of rice (Oryza sativa), umbrella sedge (Cyperus difformis), duck salad (Heteranthera limosa) and barnyardgrass (Echinochloa crus-galli) grown to the 2-leaf stage for testing. Treated plants and controls were maintained in a greenhouse for 12 to 14 days, after which time all species were compared to controls and visually evaluated. Plant response ratings, summarized in Table C, are based on a scale of 0 to 100 where 0 is no effect and 100 is complete control. A dash (-) response means no test result.

[10] = tested on: duck salad (Heteranthera limosa); assay: Test C flooded paddy test; assay type: in vivo; conditions: Flood, scale 0 to 100
Procedure: as §2

rice (Oryza sativa) = assay: Test C flooded paddy test; assay type: in vivo; conditions: Flood, scale 0 to 100
Procedure: as §2

[11] = tested on: umbrella sedge (Cyperus difformis); assay: Test C flooded paddy test; assay type: in vivo; conditions: Flood, scale 0 to 100
Procedure: as §2

[12] = tested on: late watergrass (Echinochloa oryzicola); assay: Test E flooded paddy water application; assay type: in vivo; conditions: Flood, 21 days, scale 0 to 100 (0 no effect, 100 complete control); for Plant response rating, Watergrass, Late: 16 g ai/ha
Outline: (§3)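 Greenhouse pots of Tama silt loam with weeds and rice at 2.0–2.5-leaf stage, flooded to 3 cm; compounds applied directly into paddy water, depth maintained. Visual rating versus untreated controls after 21 days, 0 (no effect) to 100 (complete control); 29.5/26.7 °C, 16-h photoperiod.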

[13] = tested on: smallflower umbrella sedge (Cyperus difformis); assay: Test E flooded paddy water application; assay type: in vivo; conditions: Flood, 21 days, scale 0 to 100 (0 no effect, 100 complete control); for Plant response rating, Sedge, Umbrella: 16 g ai/ha
Outline: as §3

[14] = 62 g ai/ha, scale 0 to 100 (0 no effect, 100 complete control)
[15] = 500 g ai/ha, scale 0 to 100 (0 no effect, 100 complete control)

COC(=O)c1nc(C2CC2)nc(N=CN(C)C)c1Br [Compound 19]
55: Plant response rating (scale of 0 to 100), Blackgrass ([2]; 16 g ai/ha)
30: Plant response rating (scale of 0 to 100), Foxtail, Green ([5]; 16 g ai/ha) | Plant response rating (scale of 0 to 100), Wheat ([6]; 31 g ai/ha)
45: Plant response rating (scale of 0 to 100), Canarygrass ([3]; 16 g ai/ha) | Foxtail, Green plant response rating ([5]; 62 g ai/ha) | Wheat plant response rating ([6]; 125 g ai/ha) | Plant response rating, Barley ([8]; 125 g ai/ha, scale 0 to 100)
20: Plant response rating, Ducksalad ([10]; 62 g ai/ha) | Plant response rating, Rice (rice (Oryza sativa); 500 g ai/ha) | Plant response rating, Sedge, Umbrella ([11]; 62 g ai/ha)
0: Plant response rating (scale of 0 to 100), Bromegrass, Downy ([4]; 16 g ai/ha) | Plant response rating (scale of 0 to 100), Bromegrass, Downy ([4]; 31 g ai/ha) | Plant response rating, Barnyardgrass ([9]; 62 g ai/ha, scale 0 to 100) | Plant response rating, Barnyardgrass ([9]; 125 g ai/ha, scale 0 to 100) | Plant response rating, Barnyardgrass ([9]; 250 g ai/ha, scale 0 to 100) | Plant response rating, Rice (rice (Oryza sativa); 62 g ai/ha) | Plant response rating, Rice (rice (Oryza sativa); 125 g ai/ha)
65: Plant response rating (scale of 0 to 100), Ryegrass, Italian ([1]; 16 g ai/ha) | Plant response rating (scale of 0 to 100), Ryegrass, Italian ([1]; 31 g ai/ha) | Ryegrass, Italian plant response rating ([1]; 62 g ai/ha) | Blackgrass plant response rating [2, 14] | Plant response rating, Blackgrass ([2]; 125 g ai/ha, scale 0 to 100) | Plant response rating, Canarygrass ([3]; 125 g ai/ha, scale 0 to 100) | Oat, Wild plant response rating (wild oat (Avena fatua); 125 g ai/ha)
60: Plant response rating (scale of 0 to 100), Blackgrass ([2]; 31 g ai/ha) | Plant response rating (scale of 0 to 100), Canarygrass ([3]; 31 g ai/ha) | Canarygrass plant response rating [3, 14] | Plant response rating, Bromegrass, Downy ([4]; 125 g ai/ha, scale 0 to 100) | Foxtail, Green plant response rating ([5]; 125 g ai/ha) | Oat, Wild plant response rating (wild oat (Avena fatua); 62 g ai/ha) | Windgrass plant response rating ([7]; 62 g ai/ha) | Windgrass plant response rating ([7]; 125 g ai/ha) | Plant response rating, Barnyardgrass [9, 15] | Plant response rating, Ducksalad ([10]; 250 g ai/ha) | Plant response rating, Ducksalad ([10]; 500 g ai/ha)
50: Bromegrass, Downy plant response rating [4, 14] | Plant response rating, Sedge, Umbrella ([11]; 125 g ai/ha) | Plant response rating, Sedge, Umbrella ([11]; 250 g ai/ha) | Plant response rating, Sedge, Umbrella ([11]; 500 g ai/ha)
70: Ryegrass, Italian plant response rating ([1]; 125 g ai/ha)
10: Plant response rating (scale of 0 to 100), Wheat ([6]; 16 g ai/ha) | Plant response rating, Rice (rice (Oryza sativa); 250 g ai/ha)
35: Plant response rating (scale of 0 to 100), Foxtail, Green ([5]; 31 g ai/ha) | Barley plant response rating [8, 14]
25: Plant response rating (scale of 0 to 100), Barley ([8]; 16 g ai/ha) | Plant response rating (scale of 0 to 100), Barley ([8]; 31 g ai/ha)
40: Wheat plant response rating ([6]; 62 g ai/ha) | Plant response rating (scale of 0 to 100), Oat, Wild (wild oat (Avena fatua); 16 g ai/ha) | Plant response rating (scale of 0 to 100), Oat, Wild (wild oat (Avena fatua); 31 g ai/ha) | Plant response rating (scale of 0 to 100), Windgrass ([7]; 16 g ai/ha) | Plant response rating (scale of 0 to 100), Windgrass ([7]; 31 g ai/ha) | Plant response rating, Ducksalad ([10]; 125 g ai/ha)

Nc1nc(C2CC2)nc(CO)c1Br [Compound 21]
182 to 185 °C: melting point

Nc1nc(C2CC2)nc(C=O)c1Br [Compound 26]
40: Plant response rating, Ducksalad ([10]; 62 g ai/ha) | Plant response rating, Ducksalad ([10]; 125 g ai/ha) | Plant response rating, Ducksalad ([10]; 250 g ai/ha) | Plant response rating, Ducksalad ([10]; 500 g ai/ha)
25: Plant response rating, Rice (rice (Oryza sativa); 500 g ai/ha)
0: Plant response rating, Barnyardgrass ([9]; 62 g ai/ha, scale 0 to 100) | Plant response rating, Barnyardgrass ([9]; 125 g ai/ha, scale 0 to 100) | Plant response rating, Barnyardgrass ([9]; 250 g ai/ha, scale 0 to 100) | Plant response rating, Barnyardgrass [9, 15] | Plant response rating, Rice (rice (Oryza sativa); 62 g ai/ha) | Plant response rating, Rice (rice (Oryza sativa); 125 g ai/ha) | Plant response rating, Sedge, Umbrella ([11]; 62 g ai/ha) | Plant response rating, Sedge, Umbrella ([11]; 125 g ai/ha)
20: Plant response rating, Rice (rice (Oryza sativa); 250 g ai/ha) | Plant response rating, Sedge, Umbrella ([11]; 250 g ai/ha) | Plant response rating, Sedge, Umbrella ([11]; 500 g ai/ha)

CCOC(=O)c1nc(C(C)(C)C)nc(N)c1Br [Compound 36]
69 to 70 °C: melting point

CCOC(=O)c1nc(-c2ccc(Cl)cc2)nc(N)c1Br [Compound 37]
100: Plant response rating, Ducksalad ([10]; 250 g ai/ha) | Plant response rating, Ducksalad ([10]; 500 g ai/ha)
30: Plant response rating, Sedge, Umbrella [13]
0: Plant response rating, Barnyardgrass ([9]; 62 g ai/ha, scale 0 to 100) | Plant response rating, Barnyardgrass ([9]; 125 g ai/ha, scale 0 to 100) | Plant response rating, Barnyardgrass ([9]; 250 g ai/ha, scale 0 to 100) | Plant response rating, Barnyardgrass [9, 15] | Plant response rating, Rice (rice (Oryza sativa); 62 g ai/ha) | Plant response rating, Rice (rice (Oryza sativa); 125 g ai/ha) | Plant response rating, Rice (rice (Oryza sativa); 250 g ai/ha) | Plant response rating, Rice (rice (Oryza sativa); 500 g ai/ha) | Watergrass, Late plant response rating ([12]; 32 g ai/ha) | Watergrass, Late plant response rating ([12]; 64 g ai/ha) | Watergrass, Late plant response rating ([12]; 125 g ai/ha) | Watergrass, Late plant response rating ([12]; 250 g ai/ha) | Plant response rating, Watergrass, Late [12]
90: Plant response rating, Sedge, Umbrella ([11]; 250 g ai/ha)
95: Plant response rating, Ducksalad ([10]; 62 g ai/ha) | Plant response rating, Ducksalad ([10]; 125 g ai/ha) | Plant response rating, Sedge, Umbrella ([11]; 500 g ai/ha) | Sedge, Umbrella plant response rating ([13]; 250 g ai/ha)
85: Plant response rating, Sedge, Umbrella ([11]; 62 g ai/ha) | Plant response rating, Sedge, Umbrella ([11]; 125 g ai/ha)
65: Sedge, Umbrella plant response rating ([13]; 125 g ai/ha)
50: Sedge, Umbrella plant response rating ([13]; 32 g ai/ha) | Sedge, Umbrella plant response rating ([13]; 64 g ai/ha)

COC(=O)c1nc(-c2ccc(Cl)cc2)nc(N)c1Cl [Compound 58, methyl 6-amino-5-chloro-2-(4-chlorophenyl)-4-pyrimidinecarboxylate]
95: Sedge, Umbrella plant response rating ([13]; 32 g ai/ha) | Sedge, Umbrella plant response rating ([13]; 64 g ai/ha) | Sedge, Umbrella plant response rating ([13]; 125 g ai/ha)
215 to 218 °C: melting point
65: Plant response rating, Sedge, Umbrella [13]
100: Sedge, Umbrella plant response rating ([13]; 250 g ai/ha)
0: Watergrass, Late plant response rating ([12]; 32 g ai/ha) | Watergrass, Late plant response rating ([12]; 64 g ai/ha) | Watergrass, Late plant response rating ([12]; 125 g ai/ha) | Watergrass, Late plant response rating ([12]; 250 g ai/ha) | Plant response rating, Watergrass, Late [12]

Nc1nc(C2CC2)nc(C(=O)[O-])c1Br.[Na+] [Compound 113, 6-amino-5-bromo-2-cyclopropyl-4-pyrimidinecarboxylic acid monosodium salt]
> 300 °C: melting point
